According to patent publication US10653173B2, “Method for masking unpleasant taste” (Analyticon Discovery GmbH, priority 2015, dated 2020):

Columns and labels:
[1] = cited from earlier work
[2] = Sensory panel: taste modulation of a potassium chloride solution; format: in vivo, human; details: 50 μM, pH neutral, 1,500 mg KCl in 100 ml water
Experimental: The sensory evaluation of the samples was performed by a team of five experienced assessors. Details may be taken from the following Table 9: [table]

[3] = Sensory panel: taste of combination with acesulfame-K; format: in vivo, human; details: 25 μM with 150 ppm acesulfame-K, pH neutral
Experimental: The sensory evaluation of the samples was performed by a team of five experienced assessors. The results may be taken from the following Table 4: [table]

[4] = Sensory panel: taste of combination with saccharin; format: in vivo, human; details: 10 μM with 80 ppm saccharin, pH neutral
Experimental: The sensory evaluation of the samples was performed by a team of five experienced assessors. The results may be taken from the following Table 3: [table]

[5] = Sensory panel: taste modulation of grapefruit juice; format: in vivo, human
Experimental: The sensory evaluation of the samples was performed by a team of five experienced assessors. Details may be taken from the following Table 7: [table]

[6] = tested on: human bitter receptor cells; experiment: In-vitro assay: intracellular calcium mobilisation (Fluo-4 AM) in human bitter receptor cell line stimulated with saccharin; format: cell-based; details: human taste cells stimulated with 1 mM saccharin, fluorometric detection, 0.1-25 μM substance; read-out: IC50 (average inhibitory concentration of the antagonist)
Experimental: Human bitter receptor cells were established, and the activation of these cells was quantified in order to detect, by means of a cell-based test system, natural substances which reduce the bitterness of bitter principles. The change of the intracellular […] level was measured for quantitation of the activation of bitter receptor cells. In order to detect substances with inhibitory activity, a high-throughput cell-based in-vitro measurement system was established. […] The modulation of the intracellular […] level of the bitter receptor cells was quantitated by means of the […] fluorescence dye Fluo-4 AM in a microplate reader. […] The quantity of mobilised calcium may be quantitated by means of fluorescence, which increases in proportion with the concentration of calcium. […] 24 hours after seeding, the cells were dyed with 4 μM of the calcium-sensitive fluorescence dye Fluo-4 AM in HBSS (Hank's Balanced Salt Solution) buffer, and the mobilisation of calcium in living cells was measured in the microplate reader (FlexStation® […], Molecular Devices). […] The mobilisation of calcium was measured in the microplate reader at 37° C. The mobilisation of calcium was quantitated as the change of fluorescence (dF) after the addition of the substance, taking into account the basal fluorescence (F0) as dF/F0. […]

[7] = Sensory panel: taste modulation of green tea; format: in vivo, human; details: vs 0.5% ethanol in tea
Experimental: The sensory evaluation of the samples was performed by a team of five experienced assessors. Details may be taken from the following Table 6: [table]

Row | SMILES | Daily uptake considered harmless [1] | Evaluation (taste of potassium chloride solution) [2] | Evaluation (taste with acesulfame-K) [3] | Evaluation (taste with saccharin) [4] | Bitter taste of freshly squeezed grapefruit juice [5] | IC50 [6] [nM] | Evaluation (taste of green tea) ([7]; 25 μM in Green tea) | Evaluation (taste of green tea) ([7]; 50 μM in Green tea)
1 | C=C1C[C@@]23CC[C@H]4[C@@](C)(CCC[C@@]4(C)C(=O)O[C@@H]4O[C@H](CO)[C@@H](O)[C@H](O)[C@H]4O)[C@@H]2CC[C@]1(O[C@@H]1O[C@H](CO)[C@@H](O)[C@H](O)[C@H]1O[C@@H]1O[C@H](CO)[C@@H](O)[C@H](O)[C@H]1O)C3 [stevioside] | up to 4 mg per kilogramme of bodyweigh | – | – | – | – | – | – | –
2 | CC(C)c1ccc2c(c1)CC[C@H]1[C@](C)(C(=O)O)CCC[C@]21C [dehydroabietic acid] | – | Less bitter than the comparison sample | No bitter taste present any more | Slightly bitter aftertaste | significant reduction of the bitter taste without negatively influencing the fruit aroma and the refreshing tartness | 1700 | Slightly bitter taste that quickly fades | As in 25 μM, but less astringent
